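Compound exposure: 48 hours, 5 concentrations, 96-well plates. GI50 = concentration required for 50% inhibition of growth.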 Activity calls are given as the source filed them. Rule as the data show it: active = GI50 up to about 1.1 µM and inactive = higher.
What was measured:
Assay in all cases: growth of human tumour cells (NCI), 48 h
[1] = system: UO-31
[2] = system: OVCAR-8
[3] = system: LOX IMVI
[4] = system: HT-29
[5] = system: SF-268
[6] = system: MDA-MB-435
[7] = system: SF-539
[8] = system: SK-MEL-28
[9] = system: UACC-257
[10] = system: SW-620
[11] = system: IGROV-1
[12] = system: NCI-H460
[13] = system: U-251
[14] = system: OVCAR-5
[15] = system: SN12C
[16] = system: COLO 205
[17] = system: HCC 2998
[18] = system: Malme-3M
[19] = system: TK-10

Measured: GI50

COc1cc(C(c2cccc3ccccc23)N2C(=O)CCC2C(=O)NCc2ccccc2)cc(OC)c1OC (stereo not given)
inactive: [1] > 100 µM | [2] > 100 µM | [3] > 100 µM | [4] > 100 µM | [5] > 100 µM | [6] > 100 µM | [7] > 100 µM | [8] > 100 µM | [9] > 100 µM | [10] > 100 µM | [11] > 100 µM | [12] > 100 µM | [13] > 100 µM | [14] > 100 µM | [15] > 100 µM | [16] > 100 µM | [17] > 100 µM | [18] > 100 µM

Nc1ncnc2c1nnn2C1C=C(CO)C(O)C1O (stereo not given)
inactive: [1] 42.5 µM | [2] 39.4 µM | [3] 38.6 µM | [4] 35.3 µM | [5] 42.7 µM | [7] > 85.3 µM | [8] 65.3 µM | [9] > 100 µM | [10] 29.4 µM | [11] > 100 µM | [12] 40.8 µM | [13] > 100 µM | [14] 48.3 µM | [15] 33 µM | [16] > 36 µM | [17] 22.5 µM | [18] > 100 µM | [19] > 92.5 µM

COc1ccc2c(c1)C=C(C(C)(C)C)NS2(=O)=O
inactive: [1] > 100 µM | [2] > 100 µM | [3] > 100 µM | [4] > 100 µM | [5] > 100 µM | [7] > 100 µM | [8] > 100 µM | [9] > 100 µM | [10] > 100 µM | [11] > 100 µM | [12] > 100 µM | [13] > 100 µM | [14] > 100 µM | [15] > 100 µM | [16] > 100 µM | [17] > 100 µM | [18] > 100 µM | [19] > 100 µM

O=C(/N=c1/[nH]/c(=N/C(=O)c2ccccc2)ss1)c1ccccc1
inactive: [1] 18.5 µM | [2] 27.3 µM | [3] 23.9 µM | [4] 16.6 µM | [5] 25.8 µM | [7] 12.9 µM | [8] 23.9 µM | [9] 14.6 µM | [10] 25.5 µM | [11] 6.64 µM | [12] 16.6 µM | [13] 7.55 µM | [14] 31.7 µM | [15] 16.5 µM | [16] 22.9 µM | [17] 18 µM | [18] 9.89 µM | [19] 26.1 µM

Cc1nc(Nc2ccccc2)sc1C(=O)NNc1ccc([N+](=O)[O-])cc1[N+](=O)[O-]
inactive: [1] 24 µM | [2] 39.2 µM | [3] 21.4 µM | [4] 35 µM | [5] 75.5 µM | [7] 32.7 µM | [8] > 100 µM | [9] 43.5 µM | [10] 39.9 µM | [11] 45.9 µM | [12] 31.9 µM | [13] 38.6 µM | [14] 33.7 µM | [15] 49 µM | [16] 30.3 µM | [17] 43.7 µM | [18] 43.9 µM | [19] 52.5 µM

COC(=O)C(C(=O)C(=O)Nc1ccc(C)cc1)c1nc2ccc([N+](=O)[O-])cc2nc1O (stereo not given)
inactive: [1] 66.1 µM | [2] > 100 µM | [3] > 100 µM | [4] > 100 µM | [5] > 100 µM | [7] > 100 µM | [8] > 100 µM | [9] > 100 µM | [10] > 100 µM | [11] > 100 µM | [12] > 100 µM | [13] 37.6 µM | [14] > 100 µM | [15] > 100 µM | [16] 53.5 µM | [17] > 100 µM | [18] > 100 µM | [19] > 100 µM

O=C(N/C(=C\c1ccccc1O)c1nc2ccccc2[nH]1)c1ccccc1
inactive: [1] > 100 µM | [2] 66.1 µM | [3] 42.1 µM | [4] > 100 µM | [5] 37.3 µM | [7] 75.7 µM | [8] > 100 µM | [9] > 100 µM | [10] > 100 µM | [11] > 100 µM | [12] > 100 µM | [13] > 100 µM | [14] > 100 µM | [15] 89.7 µM | [16] > 100 µM | [17] > 100 µM | [18] > 100 µM | [19] 41.5 µM

Cc1ccc(S(=O)(=O)SCc2ccccc2CSS(=O)(=O)c2ccc(C)cc2)cc1
inactive: [1] 78.3 µM | [2] 24.5 µM | [3] 15.8 µM | [4] 22.7 µM | [5] 36.6 µM | [7] 19.5 µM | [8] 19.1 µM | [9] 71.9 µM | [10] 17.1 µM | [11] > 100 µM | [12] 42.2 µM | [13] 28.6 µM | [14] > 10 µM | [15] 17.7 µM | [16] 17 µM | [17] 75.2 µM | [18] 24.2 µM | [19] > 100 µM

CC1(C)COC(c2cccc3c2C(=O)c2cccc(Cl)c2-3)=N1
inactive: [1] 27.1 µM | [2] 38.4 µM | [3] 51.9 µM | [4] 32 µM | [5] 56.5 µM | [7] 68.7 µM | [8] 58.7 µM | [9] 33.7 µM | [10] 37.8 µM | [11] > 100 µM | [12] 50.4 µM | [13] 68.4 µM | [14] > 100 µM | [15] 74 µM | [16] 42.9 µM | [17] 29.7 µM | [18] 84.7 µM | [19] 41.7 µM

CCOC(=O)C1=NC(c2ccccc2)(c2ccccc2)OC1=C(Cl)Cl
inactive: [1] 65 µM | [2] > 100 µM | [3] 46 µM | [4] 32.4 µM | [5] > 100 µM | [7] > 100 µM | [8] > 100 µM | [9] 32.4 µM | [10] 82.4 µM | [11] > 100 µM | [12] 70.6 µM | [13] 74.6 µM | [14] 96.2 µM | [15] > 100 µM | [16] > 100 µM | [17] 18.5 µM | [18] 40 µM | [19] > 100 µM

CCCc1c(C(=O)OCC)[nH]c(C(=O)CCC(=O)c2[nH]c(C(=O)OCC)c(CCC)c2C(=O)OCC)c1C(=O)OCC
inactive: [1] > 100 µM | [2] > 100 µM | [3] > 100 µM | [4] > 100 µM | [5] > 100 µM | [7] > 100 µM | [8] > 100 µM | [9] > 100 µM | [10] > 100 µM | [11] > 100 µM | [12] > 100 µM | [13] > 100 µM | [14] > 100 µM | [15] > 100 µM | [16] > 100 µM | [17] > 100 µM | [18] > 100 µM | [19] > 100 µM

O=C(CC(CC(=O)Oc1c(Br)cc(Br)cc1C(=O)O)C(=O)Oc1c(Br)cc(Br)cc1C(=O)O)Oc1c(Br)cc(Br)cc1C(=O)O
inactive: [1] 36.5 µM | [2] 19.3 µM | [3] 30.8 µM | [4] 49.2 µM | [5] 6.12 µM | [7] 48.1 µM | [8] > 100 µM | [9] 83.6 µM | [10] 69.5 µM | [11] 29 µM | [12] 56.8 µM | [13] 46.6 µM | [14] 45.1 µM | [15] 52.1 µM | [16] > 100 µM | [17] 42.3 µM | [18] 70.1 µM | [19] 51.4 µM

O=C(Cc1ccccc1)NN1C(=O)C(Cl)C1c1ccccc1Cl (stereo not given)
inactive: [1] > 100 µM | [2] > 74 µM | [3] 24.3 µM | [4] > 94.2 µM | [5] > 70.1 µM | [7] > 100 µM | [8] > 100 µM | [9] > 70.6 µM | [10] 34.4 µM | [11] 39 µM | [12] 76 µM | [13] 44.1 µM | [14] > 100 µM | [15] > 75.9 µM | [16] > 100 µM | [17] > 100 µM | [18] > 100 µM | [19] > 100 µM

COc1cccc(NC(=O)C(=O)C(C(C)=O)c2nc3ccc(Cl)cc3nc2O)c1 (stereo not given)
inactive: [1] > 100 µM | [2] > 100 µM | [3] > 100 µM | [4] > 100 µM | [5] > 100 µM | [7] > 100 µM | [8] > 100 µM | [9] > 100 µM | [10] > 100 µM | [11] > 100 µM | [12] > 100 µM | [13] > 100 µM | [14] > 100 µM | [15] > 100 µM | [16] > 100 µM | [17] > 100 µM | [18] > 100 µM | [19] > 100 µM

O=S(O)CCCSSc1ccccc1
inactive: [1] 19.8 µM | [2] 26.5 µM | [3] 29.3 µM | [4] 46.9 µM | [5] 18.7 µM | [7] 25.3 µM | [8] 54.6 µM | [9] 40.2 µM | [10] 47.3 µM | [11] 14.7 µM | [12] 78.3 µM | [13] 26.4 µM | [14] > 100 µM | [15] 25.6 µM | [16] 43.4 µM | [17] 76.9 µM | [18] 67 µM | [19] 40.1 µM

From ChEMBL document CHEMBL1201862, “PubChem BioAssay data set” (2004)
